pEC50: −log10 of the molar value.

This passage reports EC50 results from patent US20200172483A1, “HETEROCYCLIC SMALL MOLECULE MODULATORS OF HUMAN STING” (Curadev Pharma Limited, priority 2017, published 2020).

T1 sequence (Q86WV6 whole entry H232R): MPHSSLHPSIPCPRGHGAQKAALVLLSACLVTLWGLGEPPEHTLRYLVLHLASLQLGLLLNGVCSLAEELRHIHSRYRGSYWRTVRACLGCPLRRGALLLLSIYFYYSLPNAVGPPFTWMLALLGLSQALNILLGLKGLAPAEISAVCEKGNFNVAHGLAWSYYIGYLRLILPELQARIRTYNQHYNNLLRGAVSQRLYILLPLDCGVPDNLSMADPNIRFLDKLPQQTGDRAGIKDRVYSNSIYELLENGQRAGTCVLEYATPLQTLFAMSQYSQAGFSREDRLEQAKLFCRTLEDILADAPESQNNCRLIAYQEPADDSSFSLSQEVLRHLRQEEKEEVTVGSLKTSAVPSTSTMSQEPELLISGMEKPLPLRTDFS

The test concerns the target T1, WT/R232 STING protein (Homo sapiens, UniProt Q86WV6, H232R).
T1 construct: host or cells: HEK293T
The test can be described thus: Luciferase reporter assay in HEK293T-hSTING-Luciferase cells (R232). Format: cell-based. Conditions: 20 hr stimulation, EC50 range. From the text:
• a) Stable STING expressing cells—Stable HEK293T STING-expressing cell lines were generated using plasmids purchased from Invivogen, CA, USA, that contain STING cDNA cloned into the pUNO-1 vector under hEF1-HTLV promoter and containing the Blasticidin selection cassette. The plasmids hSTING (R232), hSTING (H232), hSTING (HAQ) were directly procured from Invivogen while hSTING (AQ) and hSTING (Q) were derived from hSTING (HAQ) and hSTING (R232) plasmids respectively by using a PCR based site directed mutagenesis method. These vectors were individually transfected into HEK293T cells using Lipofectamine (Invitrogen) and transfected cells were selected under Blasticidin selection. These transfected cells were further subjected to clonal selection using the limiting dilution method to obtain clonally pure populations of HEK cells transfected with each of the above mentioned human STING variants. Only those clones were selected in which ligand independent activation of STING was minimal. • b) Stable Luciferase reporter gene expressing cells—Stable HEK293T Luciferase reporter gene expressing cell lines were generated using pCDNA4 plasmids under an IRF-inducible promoter. This promoter is comprised of five tandem interferon-stimulated response elements (ISRE) fused to an ISG54 minimal promoter. This vector was transfected into HEK293T cells using Lipofectamine (Invitrogen) and transfected cells were selected under Zeocin selection. These transfected cells were further subjected to clonal selection using the limiting dilution method to obtain clonally pure populations of HEK cells transfected the Luciferase reporter construct. Only those clones were selected in which ligand independent induction of luciferase was minimal.
5×10^5 clonally selected HEK293T-hSTING-Luciferase cells were seeded in 384-well plates in growth medium and stimulated with novel compounds. After 20 hr of stimulation supernatant were removed and secretary reporter gene activity were measured using the Quanti-Luc detection system (Invivogen) on a Spectramax i3X luminometer.
All compounds were first tested in a primary screen using WT/R232 STING protein to obtain a ‘fold-induction’ over baseline levels of protein activity.
Regarding `CC1(C)C(=O)N(Cc2ccccc2F)c2cc(C(=O)NCc3ccco3)ccc21` [Example 1, 1-(2-Fluorobenzyl)-N-(furan-2-ylmethyl)-3,3-dimethyl-2-oxoindoline-6-carboxamide], the pEC50 (in general, −log10 of the EC50, conventionally taken in molar units) was 5.00 to 6.00.

The compound `CC1(C)C(=O)N(Cc2ccccc2F)c2cc(C(=O)N(CC(=O)O)Cc3ccco3)ccc21` [Example 3, 2-(1-(2-fluorobenzyl)-N-(furan-2-ylmethyl)-3,3-dimethyl-2-oxoindoline-6-carboxamido)acetic acid] had a pEC50 of under 5.00.

`CC1(C)C(=O)N(Cc2c(F)cccc2Cl)c2cc(C(=O)NCc3cccs3)ccc21` [Example 7, 1-(2-chloro-6-fluorobenzyl)-3,3-dimethyl-2-oxo-N-(thiophen-2-ylmethyl)indoline-6-carboxamide] showed a pEC50 of 5.00 to 6.00.

In turn, `CC1(C)C(=O)N(Cc2c(F)cccc2Cl)c2cc(C(=O)NCc3cccc(Cl)c3)ccc21` [Example 9, 1-(2-chloro-6-fluorobenzyl)-N-(3-chlorobenzyl)-3,3-dimethyl-2-oxoindoline-6-carboxamide] gave a pEC50 of 5.00 to 6.00.

In the case of `CC1(C)C(=O)N(Cc2ccccc2)c2cc(C(=O)NCc3ccccc3)ccc21` [Example 10, N,1-dibenzyl-3,3-dimethyl-2-oxoindoline-6-carboxamide], the pEC50 was 5.00 to 6.00.

For `Cc1cc(CN2C(=O)C(C)(C)c3ccc(C(=O)NCc4c(F)cc(F)cc4F)cc32)cc(C(F)(F)F)c1` [Example 15, 3,3-dimethyl-1-(3-methyl-5-(trifluoromethyl)benzyl)-2-oxo-N-(2,4,6-trifluorobenzyl)indoline-6-carboxamide], the pEC50 was 5.00 to 6.00.

Regarding `CC1(C)C(=O)N(Cc2cccc(C(F)(F)F)c2)c2cc(C(=O)NCc3c(F)cc(F)cc3F)ccc21` [Example 17, 3,3-dimethyl-2-oxo-N-(2,4,6-trifluorobenzyl)-1-(3-(trifluoromethyl)benzyl)indoline-6-carboxamide], the pEC50 was 5.00 to 6.00.

For the compound `CC1C(=O)N(Cc2c(F)cccc2Cl)c2cc(C(=O)NCc3c(F)cc(F)cc3F)ccc21` (stereo not shown) [Example 21, 1-(2-chloro-6-fluorobenzyl)-3-methyl-2-oxo-N-(2,4,6-trifluorobenzyl)indoline-6-carboxamide], the pEC50 was under 5.00.

For `CC1(C)C(=O)N(Cc2ccncc2)c2cc(C(=O)NCc3c(F)cc(F)cc3F)ccc21` [Example 22, 3,3-dimethyl-2-oxo-1-(pyridin-4-ylmethyl)-N-(2,4,6-trifluorobenzyl)indoline-6-carboxamide], the negative logarithm of the EC50 (pEC50) is 5.00 to 6.00.

`Cc1ccc(CNC(=O)c2ccc3c(c2)N(Cc2c(F)cccc2Cl)C(=O)C3(C)C)s1` [Example 24, 1-(2-chloro-6-fluorobenzyl)-3,3-dimethyl-N-((5-methylthiophen-2-yl)methyl)-2-oxoindoline-6-carboxamide]: the pEC50 was 5.00 to 6.00.

The compound `Cc1cccc(CNC(=O)c2ccc3c(c2)N(Cc2cc(F)cc(F)c2)C(=O)C3(C)C)n1` [Example 28, 1-(3,5-difluorobenzyl)-3,3-dimethyl-N-((6-methylpyridin-2-yl)methyl)-2-oxoindoline-6-carboxamide] showed a pEC50 of under 5.00.

Turning to `Cc1nnc(CNC(=O)c2ccc3c(c2)N(Cc2cc(F)cc(F)c2)C(=O)C3(C)C)o1` [Example 29, 1-(3,5-difluorobenzyl)-3,3-dimethyl-N-((5-methyl-1,3,4-oxadiazol-2-yl)methyl)-2-oxoindoline-6-carboxamide], the pEC50 is under 5.00.

In turn, `Cc1ncc(CNC(=O)c2ccc3c(c2)N(Cc2c(F)cccc2Cl)C(=O)C3(C)C)o1` [Example 31, 1-(2-chloro-6-fluorobenzyl)-3,3-dimethyl-N-((2-methyloxazol-5-yl)methyl)-2-oxoindoline-6-carboxamide] had a pEC50 of under 5.00.

In turn, `Cc1ccnc(CNC(=O)c2ccc3c(c2)N(Cc2c(F)cccc2Cl)C(=O)C3(C)C)c1` [Example 32, 1-(2-chloro-6-fluorobenzyl)-3,3-dimethyl-N-((4-methylpyridin-2-yl)methyl)-2-oxoindoline-6-carboxamide] gave a pEC50 of under 5.00.

`CC1(C)C(=O)N(Cc2cc(F)cc(F)c2)c2c1ccc(C(=O)NCc1cc3ccccc3o1)c2F` [Example 34, N-(benzofuran-2-ylmethyl)-1-(3,5-difluorobenzyl)-7-fluoro-3,3-dimethyl-2-oxoindoline-6-carboxamide] gave a pEC50 of under 5.00.

In turn, `CC1(C)C(=O)N(Cc2cc(F)cc(F)c2)c2c1ccc(C(=O)NCc1c(F)cc(F)cc1F)c2F` [Example 35, 1-(3,5-difluorobenzyl)-7-fluoro-3,3-dimethyl-2-oxo-N-(2,4,6-trifluorobenzyl)indoline-6-carboxamide] gave a pEC50 of under 5.00.

On to `CC1(C)C(=O)N(Cc2cccc(C(N)=O)c2)c2cc(C(=O)NCc3ccc(F)cc3F)ccc21` [Example 38, 1-(3-carbamoylbenzyl)-N-(2,4-difluorobenzyl)-3,3-dimethyl-2-oxoindoline-6-carboxamide], for which the pEC50 was 5.00 to 6.00.

For the compound `CC1(C)C(=O)N(Cc2cc(F)cc(F)c2)c2cc(C(=O)NCC3CCC(F)(F)C3)ccc21` (stereo not shown) [Example 39, 1-(3,5-difluorobenzyl)-N-((3,3-difluorocyclopentyl)methyl)-3,3-dimethyl-2-oxoindoline-6-carboxamide], the pEC50 was under 5.00.

For the compound `CC1(C)C(=O)N(Cc2cc(F)cc(F)c2)c2cc(C(=O)NCc3nc4ccccc4s3)ccc21` [Example 40, N-(benzo[d]thiazol-2-ylmethyl)-1-(3,5-difluorobenzyl)-3,3-dimethyl-2-oxoindoline-6-carboxamide], the pEC50 is 5.00 to 6.00.

For the compound `CC1(C)C(=O)N(Cc2ccc(F)cc2)c2cc(C(=O)NCc3ccco3)ccc21` [Example 41, 1-(4-fluorobenzyl)-N-(furan-2-ylmethyl)-3,3-dimethyl-2-oxoindoline-6-carboxamide], the pEC50 was 5.00 to 6.00.

`CC1(C)C(=O)N(Cc2cccc(F)c2)c2cc(C(=O)NCc3ccco3)ccc21` [Example 42, 1-(3-fluorobenzyl)-N-(furan-2-ylmethyl)-3,3-dimethyl-2-oxoindoline-6-carboxamide]: the pEC50 is under 5.00.

Regarding `CC1(C)C(=O)N(Cc2cc(F)cc(F)c2)c2cc(C(=O)NCC3CCC(F)(F)CC3)ccc21` [Example 43, 1-(3,5-difluorobenzyl)-N-((4,4-difluorocyclohexyl)methyl)-3,3-dimethyl-2-oxoindoline-6-carboxamide], the pEC50 is under 5.00.

Compound `CC1(C)C(=O)N(Cc2cc(F)cc(F)c2)c2cc(C(=O)NCc3cccc(C#N)c3)ccc21` [Example 44, N-(3-cyanobenzyl)-1-(3,5-difluorobenzyl)-3,3-dimethyl-2-oxoindoline-6-carboxamide] had a pEC50 of under 5.00.

The compound `CC1(C)C(=O)N(Cc2cc(F)cc(F)c2)c2cc(C(=O)NCc3cccc(C(F)(F)F)c3)ccc21` [Example 45, 1-(3,5-difluorobenzyl)-3,3-dimethyl-2-oxo-N-(3-(trifluoromethyl)benzyl)indoline-6-carboxamide] showed a pEC50 of under 5.00.

In turn, `CC1(C)C(=O)N(Cc2ccc(F)c(F)c2)c2cc(C(=O)NCc3ccco3)ccc21` [Example 46, 1-(3,4-difluorobenzyl)-N-(furan-2-ylmethyl)-3,3-dimethyl-2-oxoindoline-6-carboxamide] showed a pEC50 of 5.00 to 6.00.

Consider `CC1(C)C(=O)N(Cc2cc(F)cc(F)c2)c2cc(C(=O)NCc3cccc(N=[N+]=[N-])c3)ccc21` [Example 47, N-(3-azidobenzyl)-1-(3,5-difluorobenzyl)-3,3-dimethyl-2-oxoindoline-6-carboxamide], for which the pEC50 is 5.00 to 6.00.

`CC1(C)C(=O)N(Cc2ccnc(F)c2)c2cc(C(=O)NCc3c(F)cc(F)cc3F)ccc21` [Example 49, 1-((2-fluoropyridin-4-yl)methyl)-3,3-dimethyl-2-oxo-N-(2,4,6-trifluorobenzyl)indoline-6-carboxamide] had a pEC50 of 5.00 to 6.00.

The compound `Cc1ccc(CNC(=O)c2ccc3c(c2)N(Cc2ccccc2Cl)C(=O)C3(C)C)o1` [Example 51, 1-(2-chlorobenzyl)-3,3-dimethyl-N-((5-methylfuran-2-yl)methyl)-2-oxoindoline-6-carboxamide] showed a pEC50 of 5.00 to 6.00.

As for `Cc1cc(CN2C(=O)C(C)(C)c3ccc(C(=O)NCc4c(F)cc(F)cc4F)cc32)on1` [Example 52, 3,3-dimethyl-1-((3-methylisoxazol-5-yl)methyl)-2-oxo-N-(2,4,6-trifluorobenzyl)indoline-6-carboxamide], the pEC50 was under 5.00.

For `CC1C(=O)N(Cc2cc(F)cc(F)c2)c2cc(C(=O)NCc3c(F)cc(F)cc3F)ccc21` (stereo not shown) [Example 53, 1-(3,5-difluorobenzyl)-3-methyl-2-oxo-N-(2,4,6-trifluorobenzyl)indoline-6-carboxamide], the pEC50 is under 5.00.

Take `Cc1cc(CN2C(=O)C(C)(C)c3ccc(C(=O)NCc4ccc(C)o4)cc32)ccn1` [Example 55, 3,3-dimethyl-N-((5-methylfuran-2-yl)methyl)-1-((2-methylpyridin-4-yl)methyl)-2-oxoindoline-6-carboxamide]: the pEC50 was under 5.00.
